Data on three compounds can be found in patent US9458118B2, “Sodium channel modulators for the treatment of pain and diabetes” (CHROMOCELL CORPORATION, priority 2013, dated 2016).

Structures are written as SMILES. A value given as a limit tells only on which side of the number the result lay.

In assay [1] the test system is Sprague-Dawley rats. Nature of the assay: Partial sciatic nerve ligation (PSNL) model, behavioral tests. The class given is in vivo, rat. As to conditions: oral route, measured 30 minutes post dose. The source says: 250-350 g male Sprague-Dawley rats from appropriate animal resources were anesthetized with 2.5% isoflurane. A hind leg was shaved, and the skin was sterilized with 0.5% iodine and 75% alcohol. All surgical instruments were sterilized before surgery and between animals. An incision (1 cm) was made at the middle of the thigh in parallel with the muscle and sciatic nerve distribution. The muscle was exposed and dissected at the joint of two muscles (biceps femoris) indicated by the light colored (white) fascia line. […]
The analgesic effect of the test compound was expressed as a percent recovery (% Recovery) relative to the sham control group baseline and calculated according to the formula: % Recovery=100%−{[(sham mean-test compound mean)/(sham mean-vehicle mean)]×100%} wherein “sham mean” refers to average score in the sham-operated group; “test compound mean” refers to average score in the PSNL-group (animals with partial sciatic nerve ligation) or diabetic group (animals treated with STZ) treated with a test compound; “vehicle mean” refers to average score in the PSNL-group or diabetic group treated with vehicle only. […]
Animals were placed under clear plastic boxes above a wire mesh floor, which allowed full access to the paws. […] Mechanical paw withdrawal thresholds (PWTs) were measured with the up-down testing paradigm. […]

Assay [2] concerns the target T1, NaV1.7 (Homo sapiens, UniProt Q15858).
T1 construct: expressed in transfected cells
Nature of the assay: FDSS membrane potential in-vitro assay. The assay is classed as cell-based. As to conditions: stimulation with veratridine and scorpion venom. Here is the method: In vitro assays were performed in recombinant cell line that stably express a heterotrimeric protein of interest from an introduced nucleic acid encoding the alpha subunit (hNav1.7, SCN9A), the beta subunit (SCNB1) and the beta subunit (SCNB2). The cell line was engineered using Human Embryonic Kidney 293 cells as host background. Additional cell lines stably expressing recombinant Nav1.7 or Nav1.5 alpha subunit alone or in combination with various beta subunits can also be used in in-vitro assays. […]
Blue membrane potential dye (Molecular Devices Inc.), or membrane potential-sensitive dye, HLB021-152 (AnaSpec) were combined with a fluorescence quencher, e.g., Dipicrylamine (DPA), Acid Violet 17 (AV 17), Diazine Black (DB), HLB30818, FD and C Black Shade, Trypan Blue, Bromophenol Blue, HLB30701, HLB30702, HLB30703, Nitrazine Yellow, Nitro Red, DABCYL (Molecular Probes), FD and C Red NO. […]
The cells were incubated with the membrane potential dye for 45-60 mins at 37° C. The dye-loaded assay plates were then placed in the high-throughput fluorescent plate reader (Hamamatsu FDSS). The kinetic read was started with assay plate imaging every second. […]
Control response elicited by veratridine and scorpion venom with buffer only (without test compounds added) was taken as the maximal response. […] The data were analyzed using GraphPad Prism software to determine the […] value for the test compound. […]

The test system of assay [3] is rat. Put plainly: Formalin test (pain behaviors). The class given is in vivo. As to conditions: 150 μL of 1 or 2% w/v solution, topical route.
The subject of assay [4] is diabetic rats. Put plainly: Anti-diabetic and analgesic effect after chronic dosing in the rat STZ model of diabetes. The assay is classed as in vivo. As to the method:
250-350 g male Sprague-Dawley rats from appropriate animal resources were used. Type I diabetes was induced by a single injection, (intraperitoneally, intravenously or intramuscularly) of 50-100 mg/kg of streptozotocin (STZ, Sigma Chemicals, St. Louis, Mo. or VWR) freshly dissolved in sodium citrate (0.01 M, pH 4.5). Sham animals were given either saline or same vehicle injection. Following a wait time of about two days, inducement of diabetes was confirmed in STZ-injected rats by measuring the plasma glucose concentrations in blood samples from the tail vein after a fast of 6 hours. The glucose level was assayed using a mini glucose monitor (kit for AlphaTRAK 2 meter, available from Abbott Laboratories). Screening for hyperglycemia in STZ-injected animals was done, with only animals with a final blood glucose level ≧300 mg/dl being selected for the study. Glucose levels in the sham animals remained normal. Other parameters (water intake, food intake, and bodyweight) were monitored before the treatment with a test compound and after the cessation of the treatment.
A Compound provided herein is tested in the rat STZ model of diabetes by chronic administration of the Compound for at least 7 days to evaluate analgesic and antidiabetic effects of the Compound. The analgesic effect of the Compound can be evaluated using behavioral tests (e.g., von Frey test, plantar test, and paw pressure test described herein below). The anti-diabetic effect of the Compound can be evaluated based on the improvement in the glucose level, food intake, water intake in the compound treated group compared to the untreated vehicle group and the normal, non-diabetic sham control group.
Diabetes mellitus was induced in rats as described in the section entitled “The Streptozotocin (STZ)-Induced Model of Diabetic Neuropathy” above.
The baseline glucose levels, daily food and water intake and behavioral tests (von Frey, paw pressure and plantar tests) were measured for each animal once weekly for 28 weeks, and once every 2-4 weeks for an additional 28-30 weeks. At a selected week (started from week 6) for a compound test, diabetic rats were divided into two test groups: a vehicle control group and a test compound treated group (n=10 each group). A sham group (saline only without STZ i.p. injection, n=10) was added as a normal, non-diabetic control group. To minimize animal stress associated with repeated daily handling, the compound treated diabetic group of animals received the test compound at a daily dose of 60 mg/kg in their drinking water containing 2% PEG600 and 1% glycofurol (the test compound concentration in the drinking water was based on the individual animal's average daily water consumption as determined the pre-dosing period, which averaged 0.1-0.11 mg/ml). The vehicle control group received drinking water containing 2% PEG600 and 1% glycofurol without the test compound. The treatment continued for 9 days. On day 10 drinking water with test compound or vehicle (2% PEG600 and 1% glycofurol) was replaced with plain drinking water in all groups. The monitoring of glucose levels, food and water intake as well as behavior tests continued for additional 28-30 weeks. […] A gradual, significant reversal of up to 90% of mechanical allodynia (von Frey test) was achieved after 9 days of treatment.
FIGS. 1-3 show food intake, glucose level, and water intake, respectively, for the vehicle control group, the test compound treated group (compound 49, 60 mg/kg/day), and the sham group. […] The significant reduction of food intake, glucose level, and water intake of the compound treated group compared to the vehicle control group continues through week 52. […] Since the standard deviation in the sham groups are less than 5%, no error bars are shown.

The mark [5] stands for this setting: diabetic rats, 60 mg/kg/day in drinking water, 9 days.
The mark [6] stands for this setting: measured on day 11, two days after compound withdrawal.

T1 sequence (Q15858 whole entry): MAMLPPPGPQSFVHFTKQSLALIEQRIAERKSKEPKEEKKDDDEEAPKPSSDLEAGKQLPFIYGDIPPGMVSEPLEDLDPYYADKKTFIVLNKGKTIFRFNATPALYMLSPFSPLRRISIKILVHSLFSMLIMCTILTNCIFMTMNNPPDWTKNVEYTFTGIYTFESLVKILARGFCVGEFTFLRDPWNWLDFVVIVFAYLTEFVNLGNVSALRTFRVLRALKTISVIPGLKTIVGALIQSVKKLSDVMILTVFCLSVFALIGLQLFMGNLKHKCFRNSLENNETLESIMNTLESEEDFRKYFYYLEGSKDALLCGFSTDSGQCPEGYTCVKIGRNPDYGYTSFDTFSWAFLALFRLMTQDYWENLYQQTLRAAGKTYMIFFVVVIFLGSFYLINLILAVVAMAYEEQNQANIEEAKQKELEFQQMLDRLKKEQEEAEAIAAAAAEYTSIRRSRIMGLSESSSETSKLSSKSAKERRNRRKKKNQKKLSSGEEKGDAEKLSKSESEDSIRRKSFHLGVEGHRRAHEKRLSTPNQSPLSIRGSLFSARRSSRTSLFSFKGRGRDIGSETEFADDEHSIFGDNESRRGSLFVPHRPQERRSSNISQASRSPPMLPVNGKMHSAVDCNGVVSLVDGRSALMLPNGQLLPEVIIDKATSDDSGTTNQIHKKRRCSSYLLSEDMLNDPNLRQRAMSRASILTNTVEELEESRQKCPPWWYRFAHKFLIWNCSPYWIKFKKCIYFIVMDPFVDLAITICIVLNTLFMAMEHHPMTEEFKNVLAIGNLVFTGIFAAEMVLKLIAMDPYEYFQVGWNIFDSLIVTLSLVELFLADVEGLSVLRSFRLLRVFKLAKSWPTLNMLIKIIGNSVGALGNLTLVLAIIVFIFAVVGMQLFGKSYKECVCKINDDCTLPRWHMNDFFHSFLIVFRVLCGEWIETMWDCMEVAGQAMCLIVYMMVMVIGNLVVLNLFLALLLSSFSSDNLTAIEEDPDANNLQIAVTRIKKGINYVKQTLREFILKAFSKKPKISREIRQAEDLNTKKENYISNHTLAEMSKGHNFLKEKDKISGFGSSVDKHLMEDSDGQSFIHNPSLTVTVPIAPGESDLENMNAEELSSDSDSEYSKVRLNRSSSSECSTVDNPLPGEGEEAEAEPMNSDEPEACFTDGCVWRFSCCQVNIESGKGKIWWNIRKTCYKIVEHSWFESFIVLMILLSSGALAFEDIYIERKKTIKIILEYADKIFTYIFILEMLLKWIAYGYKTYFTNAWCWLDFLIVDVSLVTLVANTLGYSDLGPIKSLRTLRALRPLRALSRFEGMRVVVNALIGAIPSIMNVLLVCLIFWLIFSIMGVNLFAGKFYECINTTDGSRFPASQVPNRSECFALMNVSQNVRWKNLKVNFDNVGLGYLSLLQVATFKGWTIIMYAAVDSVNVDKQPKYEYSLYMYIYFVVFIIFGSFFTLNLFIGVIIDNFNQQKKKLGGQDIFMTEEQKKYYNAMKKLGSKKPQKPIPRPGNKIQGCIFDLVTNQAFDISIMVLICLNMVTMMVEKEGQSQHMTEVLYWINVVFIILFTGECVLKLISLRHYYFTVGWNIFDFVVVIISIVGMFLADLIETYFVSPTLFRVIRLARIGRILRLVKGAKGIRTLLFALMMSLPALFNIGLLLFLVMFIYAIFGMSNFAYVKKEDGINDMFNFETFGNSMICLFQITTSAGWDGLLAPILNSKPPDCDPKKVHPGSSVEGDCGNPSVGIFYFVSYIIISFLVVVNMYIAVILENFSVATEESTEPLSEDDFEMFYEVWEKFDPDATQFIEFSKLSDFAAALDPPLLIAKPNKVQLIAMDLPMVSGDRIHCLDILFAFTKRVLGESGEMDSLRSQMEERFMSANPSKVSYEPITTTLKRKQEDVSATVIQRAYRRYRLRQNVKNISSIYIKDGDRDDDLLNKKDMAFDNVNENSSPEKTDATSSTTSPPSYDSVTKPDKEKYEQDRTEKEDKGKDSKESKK
T1 sequence (Q07699 19-218 partner): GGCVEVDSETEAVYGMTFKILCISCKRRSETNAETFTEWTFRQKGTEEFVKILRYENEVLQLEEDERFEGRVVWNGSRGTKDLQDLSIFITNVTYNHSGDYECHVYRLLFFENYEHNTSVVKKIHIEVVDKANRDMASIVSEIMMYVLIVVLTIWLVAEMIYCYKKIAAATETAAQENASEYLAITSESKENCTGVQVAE
T1 sequence (O60939 30-215 partner): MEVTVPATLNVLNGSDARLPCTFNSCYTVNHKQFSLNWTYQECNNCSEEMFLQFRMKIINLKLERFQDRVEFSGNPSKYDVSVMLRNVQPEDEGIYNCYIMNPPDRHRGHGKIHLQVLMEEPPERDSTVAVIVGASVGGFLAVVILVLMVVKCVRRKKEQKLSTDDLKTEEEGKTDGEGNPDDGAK

Consider `C#CCN(CCCc1cc(Cl)ccc1Oc1cc(F)c(S(=O)(=O)Nc2nccs2)cc1Cl)CC(=O)O` [Compound 54, 2-((3-(5-chloro-2-(2-chloro-5-fluoro-4-(N-(thiazol-2-yl)sulfamoyl)phenoxy)phenyl)propyl)(prop-2-yn-1-yl)amino)acetic acid], for which, in assay [1], the “effect in the tactile allodynia test relative to vehicle control” value is “no significant effect”. The half-maximal inhibitory concentration (IC50) in assay [2] is < 100 nM.
Take `O=C(O)CCNCCCc1cc(Cl)ccc1Oc1cc(F)c(S(=O)(=O)Nc2ncns2)cc1Cl` [Compound 12, 3-((3-(2-(4-(N-(1,2,4-thiadiazol-5-yl)sulfamoyl)-2-chloro-5-fluorophenoxy)-5-chlorophenyl)propyl)amino)propanoic acid]: in assay [3], the “reduction in pain response (formalin assay phase 2) relative to vehicle control” value was 29-43% and the “reduction in pain response (formalin assay, phase 1) relative to vehicle control” value is reported as 13-24%.
With `NC(=O)CNCCCc1cc(Cl)ccc1Oc1cc(F)c(S(=O)(=O)Nc2cscn2)cc1Cl` [Compound 49, 2-((3-(5-chloro-2-(2-chloro-5-fluoro-4-(N-(thiazol-4-yl)sulfamoyl)phenoxy)phenyl)propyl)amino)acetamide], in assay [4] (FIG. 1, 60 mg/kg/day for 9 days, reduction continues through week 52), the “food intake compared to the vehicle control group” value is “significantly reduced”. In assay [4] (FIG. 2, 60 mg/kg/day for 9 days, reduction continues through week 52), the “glucose level compared to the vehicle control group” value is on record as “significantly reduced”. The “water intake compared to the vehicle control group” value in assay [4] (FIG. 3, 60 mg/kg/day for 9 days, reduction continues through week 52) is reported as “significantly reduced”. Also, the “general appearance and/or health” value in assay [4] (after the treatment stopped on day 9) is “improvements in general appearance and/or health”. For the same compound, in assay [4] (setting [5]), the “mechanical pain (paw pressure test)” value is “rapid and sustained improvement”; the tachyphylaxis entry is “no tachyphylaxis”; the “thermal pain (plantar test)” value is “rapid and sustained improvement”. In assay [4] (setting [6]), the “paw pressure test threshold after compound withdrawal” value was “returned to the pretreatment baseline” and the “plantar test threshold after compound withdrawal” value is reported as “returned to the pretreatment baseline”. Also, the “effect in the tactile allodynia test relative to vehicle control” value in assay [1] is “no significant effect”.

As a reminder, the IC50 is the concentration that inhibits the measured activity by half.
